Assay results as given in patent publication US20250084039A1, “4-SUBSTITUTED AMINOISOQUINOLINE DERIVATIVES” (Purdue Research Foundation, priority 2016, published 2025).
Values belong to the compound of their own block, whether it stands above or below them.

Legend:
Assay in all cases: Reaction Biology HotSpot kinase assay
Type in all cases: biochemical
c-kit = c-kit (Homo sapiens (Human), UniProt P10721); details: 500 nM compound, 100 μM radiolabeled ATP
Summary of the method: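 HotSpot 33P transfer format. Enzyme, substrate and 500 nM test compound sit together for 20 min, then labelled and unlabelled ATP totalling 100 μM are added and phosphorylation proceeds for 2 h at room temperature. Products are captured on P81 cellulose paper, and activity is expressed relative to DMSO.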

RAF1 = details: 500 nM compound
Summary of the method: (§1)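 Phosphotransfer from [γ-33P]ATP was quantified after filter binding on P81 paper. Conditions: 20 mM HEPES pH 7.5, 10 mM MgCl2, 0.1 mM Na3VO4, 2 mM DTT, 0.02 mg/mL BSA; ATP 100 μM final; 2 h at room temperature. Compound was dosed at 500 nM.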

FYN = FYN (Homo sapiens (Human), UniProt P06241); details: 500 nM compound; for inhibition at 0.5 µM: read-out: Percentage kinase inhibition FYN
Summary of the method: as §1

ZAP70 = ZAP70 (Homo sapiens (Human), UniProt P43403); details: 500 nM compound; for inhibition at 0.5 µM: read-out: Percentage kinase inhibition ZAP70
Summary of the method: as §1

EPHA3 = EPHA3 (Homo sapiens (Human), UniProt P29320); details: 500 nM compound; for inhibition at 0.5 µM: read-out: Percentage kinase inhibition EPHA3
Summary of the method: as §1

TGFBR2 = TGFBR2 (Homo sapiens (Human), UniProt P37173); details: 500 nM compound; for inhibition at 0.5 µM: read-out: Percentage kinase inhibition TGFBR2
TGFBR2, sequence (P37173 23-567): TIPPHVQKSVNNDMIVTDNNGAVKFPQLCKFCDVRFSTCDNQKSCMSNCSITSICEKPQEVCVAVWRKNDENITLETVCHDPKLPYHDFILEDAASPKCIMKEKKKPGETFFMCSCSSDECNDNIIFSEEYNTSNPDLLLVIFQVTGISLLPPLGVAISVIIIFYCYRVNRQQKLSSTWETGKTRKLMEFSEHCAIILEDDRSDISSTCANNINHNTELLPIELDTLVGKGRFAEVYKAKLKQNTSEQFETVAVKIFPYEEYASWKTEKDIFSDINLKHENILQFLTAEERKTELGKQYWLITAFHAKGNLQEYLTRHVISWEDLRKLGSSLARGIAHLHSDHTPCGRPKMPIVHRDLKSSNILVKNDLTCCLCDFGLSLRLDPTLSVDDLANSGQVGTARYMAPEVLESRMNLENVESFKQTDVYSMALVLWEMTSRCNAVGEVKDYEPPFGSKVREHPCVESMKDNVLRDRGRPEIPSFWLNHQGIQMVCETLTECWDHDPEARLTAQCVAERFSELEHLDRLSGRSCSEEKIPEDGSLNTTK
Summary of the method: as §1

MUSK = MUSK (Homo sapiens (Human), UniProt O15146); details: 500 nM compound; for inhibition at 0.5 µM: read-out: Percentage kinase inhibition MUSK
Summary of the method: as §1

CSK = CSK (Homo sapiens (Human), UniProt P41240); details: 500 nM compound; for inhibition at 0.5 µM: read-out: Percentage kinase inhibition CSK
Summary of the method: as §1

P38a/MAPK14 = P38a/MAPK14 (Homo sapiens (Human), UniProt Q16539); details: 500 nM compound; for inhibition at 0.5 µM: read-out: Percentage kinase inhibition P38a/MAPK14
P38a/MAPK14, sequence (Q16539 whole entry): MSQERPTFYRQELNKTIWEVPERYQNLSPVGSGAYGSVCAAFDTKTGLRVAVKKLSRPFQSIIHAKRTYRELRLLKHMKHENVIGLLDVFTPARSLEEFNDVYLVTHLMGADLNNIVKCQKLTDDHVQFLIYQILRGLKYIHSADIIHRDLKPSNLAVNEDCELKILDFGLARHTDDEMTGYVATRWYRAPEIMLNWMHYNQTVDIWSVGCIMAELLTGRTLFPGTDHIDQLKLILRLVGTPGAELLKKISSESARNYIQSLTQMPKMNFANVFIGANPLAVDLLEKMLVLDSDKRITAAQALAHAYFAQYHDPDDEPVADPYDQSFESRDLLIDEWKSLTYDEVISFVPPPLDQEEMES
Summary of the method: as §1

PIM1 = PIM1 (Homo sapiens (Human), UniProt P11309); details: 500 nM compound; for inhibition at 0.5 µM: read-out: Percentage kinase inhibition PIM1
PIM1, sequence (P11309 whole entry): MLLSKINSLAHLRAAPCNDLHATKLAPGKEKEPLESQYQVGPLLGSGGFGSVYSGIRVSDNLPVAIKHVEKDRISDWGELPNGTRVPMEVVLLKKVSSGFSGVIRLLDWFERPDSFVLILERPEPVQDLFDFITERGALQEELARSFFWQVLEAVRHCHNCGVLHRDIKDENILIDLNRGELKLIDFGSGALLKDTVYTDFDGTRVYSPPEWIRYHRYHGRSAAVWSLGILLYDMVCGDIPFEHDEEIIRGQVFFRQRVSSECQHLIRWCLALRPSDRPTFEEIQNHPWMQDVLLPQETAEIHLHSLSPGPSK
Summary of the method: as §1

CDK9/cyclin T2 = CDK9/cyclin T2 (Homo sapiens (Human), UniProt P50750); details: 500 nM compound; for inhibition at 0.5 µM: read-out: Percentage kinase inhibition CDK9/cyclin T2
Summary of the method: as §1

IKKa/CHUK = IKKa/CHUK (Homo sapiens (Human), UniProt O15111); details: 500 nM compound; for inhibition at 0.5 µM: read-out: Percentage kinase inhibition IKKa/CHUK
Summary of the method: as §1

MKK7 = MKK7 (Homo sapiens (Human), UniProt O14733); details: 500 nM compound; for inhibition at 0.5 µM: read-out: Percentage kinase inhibition MKK7
MKK7, sequence (O14733 whole entry): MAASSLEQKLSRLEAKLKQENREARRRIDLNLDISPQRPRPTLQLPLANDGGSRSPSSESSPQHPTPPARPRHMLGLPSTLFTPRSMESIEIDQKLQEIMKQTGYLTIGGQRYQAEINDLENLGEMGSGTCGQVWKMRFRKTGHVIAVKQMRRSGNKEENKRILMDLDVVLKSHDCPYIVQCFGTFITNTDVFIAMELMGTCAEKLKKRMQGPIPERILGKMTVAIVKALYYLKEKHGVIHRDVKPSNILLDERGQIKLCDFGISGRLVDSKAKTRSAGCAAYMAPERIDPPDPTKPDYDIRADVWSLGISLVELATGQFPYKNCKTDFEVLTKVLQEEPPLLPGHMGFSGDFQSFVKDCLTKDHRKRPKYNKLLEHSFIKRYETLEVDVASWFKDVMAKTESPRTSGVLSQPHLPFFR
Summary of the method: as §1

HCK = HCK (Homo sapiens (Human), UniProt P08631); details: 500 nM compound; for inhibition at 0.5 µM: read-out: Percentage kinase inhibition HCK
HCK, sequence (P08631 whole entry): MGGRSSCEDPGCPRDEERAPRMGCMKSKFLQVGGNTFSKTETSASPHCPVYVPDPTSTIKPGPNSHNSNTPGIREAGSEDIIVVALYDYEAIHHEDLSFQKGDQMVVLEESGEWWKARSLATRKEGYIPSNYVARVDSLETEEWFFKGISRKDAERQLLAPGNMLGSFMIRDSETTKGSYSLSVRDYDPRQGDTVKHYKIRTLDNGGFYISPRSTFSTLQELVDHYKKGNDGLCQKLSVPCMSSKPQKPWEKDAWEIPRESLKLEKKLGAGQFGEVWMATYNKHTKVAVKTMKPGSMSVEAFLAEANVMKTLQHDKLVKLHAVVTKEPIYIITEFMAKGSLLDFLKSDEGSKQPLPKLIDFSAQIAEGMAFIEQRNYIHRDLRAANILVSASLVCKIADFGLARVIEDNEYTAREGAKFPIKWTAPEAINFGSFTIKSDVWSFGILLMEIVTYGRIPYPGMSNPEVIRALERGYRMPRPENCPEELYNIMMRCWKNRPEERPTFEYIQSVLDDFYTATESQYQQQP
Summary of the method: as §1

TYK2 = TYK2 (Homo sapiens (Human), UniProt P29597); details: 500 nM compound; for inhibition at 0.5 µM: read-out: Percentage kinase inhibition TYK2
TYK2, sequence (P29597 whole entry): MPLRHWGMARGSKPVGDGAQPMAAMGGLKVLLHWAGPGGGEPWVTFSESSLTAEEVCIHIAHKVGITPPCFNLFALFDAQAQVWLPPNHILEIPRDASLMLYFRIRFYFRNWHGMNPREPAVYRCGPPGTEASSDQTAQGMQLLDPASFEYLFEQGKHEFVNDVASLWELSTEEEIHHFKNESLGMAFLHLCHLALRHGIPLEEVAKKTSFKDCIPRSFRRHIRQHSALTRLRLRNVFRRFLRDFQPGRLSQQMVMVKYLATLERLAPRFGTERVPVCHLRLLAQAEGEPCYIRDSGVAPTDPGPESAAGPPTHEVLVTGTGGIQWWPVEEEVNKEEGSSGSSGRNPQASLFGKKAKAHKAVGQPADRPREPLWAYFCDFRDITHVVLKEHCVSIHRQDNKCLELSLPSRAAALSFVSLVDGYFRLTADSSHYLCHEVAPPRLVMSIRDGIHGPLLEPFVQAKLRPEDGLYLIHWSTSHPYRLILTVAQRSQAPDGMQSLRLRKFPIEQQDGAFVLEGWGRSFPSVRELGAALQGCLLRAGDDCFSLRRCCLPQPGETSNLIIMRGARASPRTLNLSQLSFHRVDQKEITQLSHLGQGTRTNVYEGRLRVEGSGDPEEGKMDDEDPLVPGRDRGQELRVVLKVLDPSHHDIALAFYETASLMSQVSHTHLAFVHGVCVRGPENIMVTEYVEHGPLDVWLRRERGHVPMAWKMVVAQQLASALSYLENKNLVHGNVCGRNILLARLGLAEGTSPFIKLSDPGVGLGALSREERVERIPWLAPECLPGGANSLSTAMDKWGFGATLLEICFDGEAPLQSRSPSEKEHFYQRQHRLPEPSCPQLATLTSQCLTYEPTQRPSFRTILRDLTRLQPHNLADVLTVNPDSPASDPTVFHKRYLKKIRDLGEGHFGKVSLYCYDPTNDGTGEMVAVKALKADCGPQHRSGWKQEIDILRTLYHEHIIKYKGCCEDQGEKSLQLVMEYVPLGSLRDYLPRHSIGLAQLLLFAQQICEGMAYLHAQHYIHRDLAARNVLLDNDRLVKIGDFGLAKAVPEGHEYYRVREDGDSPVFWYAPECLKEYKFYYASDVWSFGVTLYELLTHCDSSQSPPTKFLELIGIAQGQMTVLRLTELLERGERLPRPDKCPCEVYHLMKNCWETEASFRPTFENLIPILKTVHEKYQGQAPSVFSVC
Summary of the method: as §1

ITK = ITK (Homo sapiens (Human), UniProt Q08881); details: 500 nM compound; for inhibition at 0.5 µM: read-out: Percentage kinase inhibition ITK
Summary of the method: as §1

JAK2 = JAK2 (Homo sapiens (Human), UniProt O60674); details: 500 nM compound; for inhibition at 0.5 µM: read-out: Percentage kinase inhibition JAK2
JAK2, sequence (O60674 whole entry): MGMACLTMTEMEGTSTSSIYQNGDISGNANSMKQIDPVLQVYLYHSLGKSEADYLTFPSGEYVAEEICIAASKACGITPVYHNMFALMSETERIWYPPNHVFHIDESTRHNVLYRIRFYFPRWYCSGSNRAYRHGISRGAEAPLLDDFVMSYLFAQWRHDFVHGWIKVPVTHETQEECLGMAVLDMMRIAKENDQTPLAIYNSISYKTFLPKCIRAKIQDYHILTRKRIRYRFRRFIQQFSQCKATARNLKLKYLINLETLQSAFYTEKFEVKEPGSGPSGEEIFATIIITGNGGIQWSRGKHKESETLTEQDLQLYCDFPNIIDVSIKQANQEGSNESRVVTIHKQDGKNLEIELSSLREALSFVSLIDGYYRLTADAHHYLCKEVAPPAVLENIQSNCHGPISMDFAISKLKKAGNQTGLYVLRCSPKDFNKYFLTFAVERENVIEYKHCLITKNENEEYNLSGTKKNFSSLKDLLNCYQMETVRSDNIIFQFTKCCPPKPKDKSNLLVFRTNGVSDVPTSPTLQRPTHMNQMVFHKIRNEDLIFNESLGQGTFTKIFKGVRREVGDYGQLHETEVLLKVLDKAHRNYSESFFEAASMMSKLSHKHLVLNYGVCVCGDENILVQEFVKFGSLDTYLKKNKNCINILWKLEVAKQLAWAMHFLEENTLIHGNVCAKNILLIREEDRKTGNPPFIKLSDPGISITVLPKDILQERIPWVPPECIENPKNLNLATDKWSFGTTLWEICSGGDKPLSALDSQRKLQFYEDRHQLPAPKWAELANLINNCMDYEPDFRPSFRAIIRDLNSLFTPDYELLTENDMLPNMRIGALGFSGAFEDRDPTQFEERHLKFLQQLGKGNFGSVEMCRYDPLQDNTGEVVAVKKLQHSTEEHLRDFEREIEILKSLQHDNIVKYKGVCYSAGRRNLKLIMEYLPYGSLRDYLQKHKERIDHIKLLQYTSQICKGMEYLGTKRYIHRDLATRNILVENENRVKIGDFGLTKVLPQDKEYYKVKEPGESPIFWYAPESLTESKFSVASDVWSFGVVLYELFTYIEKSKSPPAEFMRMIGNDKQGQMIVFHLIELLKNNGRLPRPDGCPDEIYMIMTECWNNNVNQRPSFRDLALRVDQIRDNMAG
Summary of the method: as §1

FAK/PTK2 = FAK/PTK2 (Homo sapiens (Human), UniProt Q05397); details: 500 nM compound; for inhibition at 0.5 µM: read-out: Percentage kinase inhibition FAK/PTK2
Summary of the method: as §1

PKD2/PRKD2 = PKD2/PRKD2 (Homo sapiens (Human), UniProt Q9BZL6); details: 500 nM compound; for inhibition at 0.5 µM: read-out: Percentage kinase inhibition PKD2/PRKD2
Summary of the method: as §1

CTK/MATK = CTK/MATK (Homo sapiens (Human), UniProt P42679); details: 500 nM compound; for inhibition at 0.5 µM: read-out: Percentage kinase inhibition CTK/MATK
Summary of the method: as §1

MST4 = MST4 (Homo sapiens (Human), UniProt Q9P289); details: 500 nM compound; for inhibition at 0.5 µM: read-out: Percentage kinase inhibition MST4
Summary of the method: as §1

HIPK1 = HIPK1 (Homo sapiens (Human), UniProt Q86Z02); details: 500 nM compound; for inhibition at 0.5 µM: read-out: Percentage kinase inhibition HIPK1
Summary of the method: as §1

KSR1 = KSR1 (Homo sapiens (Human), UniProt Q8IVT5); details: 500 nM compound; for inhibition at 0.5 µM: read-out: Percentage kinase inhibition KSR1
Summary of the method: as §1

ERBB4/HER4 = ERBB4/HER4 (Homo sapiens (Human), UniProt Q15303); details: 500 nM compound; for inhibition at 0.5 µM: read-out: Percentage kinase inhibition ERBB4/HER4
Summary of the method: as §1

CDK6/cyclin D3 = CDK6/cyclin D3 (Homo sapiens (Human), UniProt Q00534); details: 500 nM compound; for inhibition at 0.5 µM: read-out: Percentage kinase inhibition CDK6/cyclin D3
Summary of the method: as §1

ERK1 = ERK1 (Homo sapiens (Human), UniProt P27361); details: 500 nM compound; for inhibition at 0.5 µM: read-out: Percentage kinase inhibition ERK1
Summary of the method: as §1

SYK = SYK (Homo sapiens (Human), UniProt P43405); details: 500 nM compound; for inhibition at 0.5 µM: read-out: Percentage kinase inhibition SYK
Summary of the method: as §1

LYN B = LYN B (Homo sapiens (Human), UniProt P07948); details: 500 nM compound; for inhibition at 0.5 µM: read-out: Percentage kinase inhibition LYN B
Summary of the method: as §1

Aurora A = Aurora A (Homo sapiens (Human), UniProt O14965); details: 500 nM compound; for inhibition at 0.5 µM: read-out: Percentage kinase inhibition Aurora A
Summary of the method: as §1

CDK1/cyclin E = CDK1/cyclin E (Homo sapiens (Human), UniProt P06493); details: 500 nM compound; for inhibition at 0.5 µM: read-out: Percentage kinase inhibition CDK1/cyclin E
Summary of the method: as §1

PDK1/PDHK1 = PDK1/PDHK1 (Homo sapiens (Human), UniProt Q15118); details: 500 nM compound; for inhibition at 0.5 µM: read-out: Percentage kinase inhibition PDK1/PDHK1
PDK1/PDHK1, sequence (Q15118 29-436): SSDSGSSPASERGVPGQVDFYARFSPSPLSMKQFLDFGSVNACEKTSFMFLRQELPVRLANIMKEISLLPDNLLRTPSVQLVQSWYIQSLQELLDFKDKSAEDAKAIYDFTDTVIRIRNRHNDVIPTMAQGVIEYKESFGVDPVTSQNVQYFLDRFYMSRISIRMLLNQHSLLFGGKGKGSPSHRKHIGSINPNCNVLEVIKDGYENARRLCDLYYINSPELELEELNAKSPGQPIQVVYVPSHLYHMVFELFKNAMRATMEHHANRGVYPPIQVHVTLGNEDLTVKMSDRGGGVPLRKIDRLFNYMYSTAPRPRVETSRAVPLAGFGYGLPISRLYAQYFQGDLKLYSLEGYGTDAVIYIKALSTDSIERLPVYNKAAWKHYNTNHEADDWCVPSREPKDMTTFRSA
Summary of the method: as §1

Structure (SMILES): Cc1ccc(C(=O)Nc2ccc(CN3CCN(C)CC3)c(C(F)(F)F)c2)cc1C#Cc1cnc(N)c2ccccc12 [HSN334, 3-((1-aminoisoquinolin-4-yl)ethynyl)-4-methyl-N-(4-((4-methylpiperazin-1-yl)methyl)-3-(trifluoromethyl)phenyl)benzamide]
inhibition at 0.5 µM (c-kit): 73%
Percentage kinase inhibition RAF1 (RAF1): 96%

Structure (SMILES): Cc1ccc(C(=O)Nc2ccc(CN3CCN(C)CC3)c(C(F)(F)F)c2)cc1C#Cc1c(N)ncc2ccc(Cl)cc12 [HSN286]
inhibition at 0.5 µM (FYN): 100%
inhibition at 0.5 µM (ZAP70): 0%
inhibition at 0.5 µM (EPHA3): 96%
inhibition at 0.5 µM (TGFBR2): 15%
inhibition at 0.5 µM (MUSK): 13%
inhibition at 0.5 µM (CSK): 93%
inhibition at 0.5 µM (c-kit): 61%
inhibition at 0.5 µM (P38a/MAPK14): 81%
inhibition at 0.5 µM (PIM1): 0%
inhibition at 0.5 µM (CDK9/cyclin T2): 0%
inhibition at 0.5 µM (IKKa/CHUK): 36%
inhibition at 0.5 µM (MKK7): 0%
inhibition at 0.5 µM (HCK): 95%
inhibition at 0.5 µM (TYK2): 0%
inhibition at 0.5 µM (ITK): 0%
inhibition at 0.5 µM (JAK2): 67%
Percentage kinase inhibition RAF1 (RAF1): 94%
inhibition at 0.5 µM (FAK/PTK2): 0%
inhibition at 0.5 µM (PKD2/PRKD2): 7%
inhibition at 0.5 µM (CTK/MATK): 0%
inhibition at 0.5 µM (MST4): 0%
inhibition at 0.5 µM (HIPK1): 0%
inhibition at 0.5 µM (KSR1): 0%
inhibition at 0.5 µM (ERBB4/HER4): 71%
inhibition at 0.5 µM (CDK6/cyclin D3): 7%
inhibition at 0.5 µM (ERK1): 0%
inhibition at 0.5 µM (SYK): 0%
inhibition at 0.5 µM (LYN B): 95%
inhibition at 0.5 µM (Aurora A): 0%
inhibition at 0.5 µM (CDK1/cyclin E): 0%
inhibition at 0.5 µM (PDK1/PDHK1): 0%

Structure (SMILES): Cc1ccc(C(=O)Nc2ccc(CN3CCN(C)CC3)c(C(F)(F)F)c2)cc1C#Cc1cnc(N)c2ncccc12 [HSN356, 3-((8-amino-1,7-naphthyridin-5-yl)ethynyl)-4-methyl-N-(4-((4-methylpiperazin-1-yl)methyl)-3-(trifluoromethyl)phenyl)benzamide]
inhibition at 0.5 µM (c-kit): 87%
Percentage kinase inhibition RAF1 (RAF1): 100%

Next, values leading:

inhibition at 0.5 µM (FYN): 10%
inhibition at 0.5 µM (ZAP70): 0%
inhibition at 0.5 µM (EPHA3): 6%
inhibition at 0.5 µM (TGFBR2): 0%
inhibition at 0.5 µM (MUSK): 0%
inhibition at 0.5 µM (CSK): 0%
inhibition at 0.5 µM (P38a/MAPK14): 5%
inhibition at 0.5 µM (PIM1): 0%
inhibition at 0.5 µM (CDK9/cyclin T2): 0%
inhibition at 0.5 µM (IKKa/CHUK): 6%
inhibition at 0.5 µM (MKK7): 6%
inhibition at 0.5 µM (HCK): 18%
inhibition at 0.5 µM (TYK2): 0%
inhibition at 0.5 µM (ITK): 1%
inhibition at 0.5 µM (JAK2): 0%
inhibition at 0.5 µM (FAK/PTK2): 0%
inhibition at 0.5 µM (PKD2/PRKD2): 0%
inhibition at 0.5 µM (CTK/MATK): 5%
inhibition at 0.5 µM (MST4): 0%
inhibition at 0.5 µM (HIPK1): 0%
inhibition at 0.5 µM (KSR1): 0%
inhibition at 0.5 µM (ERBB4/HER4): 7%
inhibition at 0.5 µM (CDK6/cyclin D3): 0%
inhibition at 0.5 µM (ERK1): 0%
inhibition at 0.5 µM (SYK): 0%
inhibition at 0.5 µM (LYN B): 35%
inhibition at 0.5 µM (Aurora A): 0%
inhibition at 0.5 µM (CDK1/cyclin E): 0%
inhibition at 0.5 µM (PDK1/PDHK1): 1%
Structure (SMILES): COc1cc2nc(N)nc(C#Cc3cc(C(=O)Nc4ccc(CN5CCN(C)CC5)c(C(F)(F)F)c4)ccc3C)c2cc1OC [HSN325]

inhibition at 0.5 µM (c-kit): 31%
Percentage kinase inhibition RAF1 (RAF1): 90%
Structure (SMILES): Cc1ccc(C(=O)Nc2ccc(CN3CCN(C)CC3)c(C(F)(F)F)c2)cc1C#Cc1cc(N)nc2ccccc12 [HSN285]

Percentage kinase inhibition FYN (FYN): 16%
Percentage kinase inhibition ZAP70 (ZAP70): 0%
Percentage kinase inhibition EPHA3 (EPHA3): 0%
Percentage kinase inhibition TGFBR2 (TGFBR2): 0%
Percentage kinase inhibition MUSK (MUSK): 35%
Percentage kinase inhibition CSK (CSK): 1%
% inhibition of c-Kit (c-kit): 83%
Percentage kinase inhibition P38a/MAPK14 (P38a/MAPK14): 0%
Percentage kinase inhibition PIM1 (PIM1): 34%
Percentage kinase inhibition CDK9/cyclin T2 (CDK9/cyclin T2): 65%
Percentage kinase inhibition IKKa/CHUK (IKKa/CHUK): 0%
Percentage kinase inhibition MKK7 (MKK7): 0%
Percentage kinase inhibition HCK (HCK): 2%
Percentage kinase inhibition TYK2 (TYK2): 2%
Percentage kinase inhibition ITK (ITK): 0%
Percentage kinase inhibition JAK2 (JAK2): 0%
Percentage kinase inhibition RAF1 (RAF1): 5%
Percentage kinase inhibition FAK/PTK2 (FAK/PTK2): 6%
Percentage kinase inhibition PKD2/PRKD2 (PKD2/PRKD2): 6%
Percentage kinase inhibition CTK/MATK (CTK/MATK): 0%
Percentage kinase inhibition MST4 (MST4): 0%
Percentage kinase inhibition HIPK1 (HIPK1): 42%
Percentage kinase inhibition KSR1 (KSR1): 0%
Percentage kinase inhibition ERBB4/HER4 (ERBB4/HER4): 0%
Percentage kinase inhibition CDK6/cyclin D3 (CDK6/cyclin D3): 50%
Percentage kinase inhibition ERK1 (ERK1): 5%
Percentage kinase inhibition SYK (SYK): 4%
Percentage kinase inhibition LYN B (LYN B): 0%
Percentage kinase inhibition Aurora A (Aurora A): 19%
Percentage kinase inhibition CDK1/cyclin E (CDK1/cyclin E): 13%
Percentage kinase inhibition PDK1/PDHK1 (PDK1/PDHK1): 0%
Structure (SMILES): CN(C)CC(O)CNC(=O)c1ccc(C#Cc2c(N)ncc3ccc(Cl)cc23)cc1 (stereo not shown) [HSM1702]
